2 substances from patent US20250057928A1, “VACCINE COMPOSITION FOR INDUCING ANTI-IL-23 ANTIBODY” (OSAKA UNIVERSITY, priority 2021, published 2025) can be followed below.

Where no end group is shown, it is not given here.

One assay concerns epitope peptide. Briefly: Antibody titer (GMT) of serum of mice administered AJP001 conjugated peptide, ELISA. In kind it is in vivo, mouse. Conditions: BALB/c mice, no adjuvant; for antibody titer (GMT) over time: 1 mg/body intradermal 3 times at two-week intervals, blood every 2 weeks until 8 weeks. The method, then:
AJP001 conjugated peptide having one of the B cell epitope sequences of SEQ ID NOs: 1-5 was dissolved in physiological saline and intradermally administered twice to BALB/c mice (female, 6-week-old, N=5-6) at 0.5 mg/body at 2-week intervals. Blood was collected before administration and 5 weeks after the initial administration, and the antibody titer against each AJP001 conjugated peptide and the binding ability to recombinant mouse IL-23 protein (rmIL-23) were measured by the ELISA method. Specifically, a 96-well plate immobilized with an epitope peptide dissolved at 10 μg/mL in carbonate buffer was blocked with 5% skim milk/PBS, and then serum serially diluted with 5% skim milk/PBS was added, and the mixture was left standing at 4° C. overnight. After washing the wells with PBS-T, HRP-labeled anti-mouse IgG antibody (GE Healthcare) diluted with 5% skim milk/PBS was added and the mixture was shaken at room temperature for 3 hr. After washing the wells with PBS-T, TMB solution (SIGMA) was added, the wells were allowed to stand for 30 min in the dark, the reaction was stopped by adding 0.5M H2SO4, and the absorbance at 450 nm was measured using a plate reader. The serum dilution rate that gave 1/2 (OD=1.75) of the maximum absorbance was defined as the antibody titer, and the geometric mean titer: GMT was calculated from the individual values. Binding to IL-23 protein was measured by the ELISA method in the same manner as the antibody titer, using rmIL-23 (Antibodies-online GmbH) as the solid-phased antigen and goat serum for blocking.
AJP001 conjugated peptide (SEQ ID NO: 2) was dissolved in physiological saline and intradermally administered to BALB/c mice (female, 6-week-old, N=6) at 1 mg/body 3 times at two-week intervals, and blood was collected every 2 weeks until 8 weeks. The antibody titer (GMT) of all the collected sera and the binding ability to rmIL-23 of the serum at the time point of 6 weeks were measured by the ELISA method (same method as in Example 1). The antibody titer and the binding of the induced antibody to rmIL-23 at each time point are shown in FIGS. 2 (a) and (b), respectively.
AJP001 conjugated peptide (SEQ ID NOs: 6-37) was dissolved in physiological saline, mixed with an equal amount of 2% Alhydrogel (invivogen), and this was intradermally administered to BALB/c mice (female, 6-week-old, N=5-6) at 0.5 mg/body 3 times at two-week intervals. Blood was collected before administration and at the time point of 6 weeks after initial administration, and the antibody titer (GMT) to each epitope sequence and binding ability to recombinant human IL-23 protein (rhIL-23) (Peprotech) were measured by the ELISA method (same method as in Example 1). The binding to rhIL-23 was evaluated by a binding ratio to normal serum by calculating the ratio of the absorbance of a well added with normal mouse serum to the absorbance of a well added with antiserum derived from a mouse administered with each AJP001 conjugated peptide (SEQ ID NOs: 6-37). In addition, the neutralization activity of mouse antiserum was evaluated using an action on IL-17 production in rhIL-23 stimulated mouse splenocyte as an index. The spleen of normal BALB/c mouse (female, 5-week-old, N=3) was triturated using a syringe barrel and a cell strainer and washed with and suspended in HBSS (−). Erythrocytes were then removed using ACK Buffer (Thermo fisher scientific), and splenocytes were isolated. The splenocytes were prepared to 2.5×10^6 cells/mL with 10% FBS/1% penicillin/streptomycin/4 ng/mL rmIL-2-containing RPMI1640 medium (culture medium), and seeded in a 96 well plate at 100 μl/well. The antiserum (final concentration 15-fold) of the mice administered with each AJP001 conjugated peptide and rhIL-23 (final concentration 10 ng/ml) were added to the culture medium, reacted at 37° C. for 2 hr, added at 100 μL/well to a 96-well plate seeded with splenocytes, and cultured for 3 days in a 37° C./5% CO2 incubator. […]
Background: ELISA stands for enzyme-linked immunosorbent assay.

Another assay relates to splenocytes. Briefly: ELISPOT assay for T cell activation (IFN-γ, IL-4) in splenocytes of administered mice. In kind it is cell-based, mouse. Conditions: splenocytes 7 weeks after first administration, stimulated with 10 μg/mL AJP001 alone or 10 μg/mL AJP001 conjugated peptide. The method, then:
In addition, ELISPOT assay was performed to evaluate T cell activation. AJP001 conjugated peptide (SEQ ID NO: 2) or physiological saline was administered three times at two-week intervals to BALB/c mice (female, 6-week-old, N=3-4), and the spleen was collected 7 weeks after the first administration. The collected spleen was triturated using a syringe barrel and a cell strainer. This was washed with and suspended in HBSS (−), erythrocytes were removed using ACK Buffer (Thermo fisher scientific), and splenocytes were isolated. Using Mouse IFN-γ ELISpot assay kit and Mouse IL-4 ELISpot assay kit (R&D systems), the cells were prepared to 2.5×10^6 cells/mL with 10% FBS/1% penicillin/streptomycin/4 ng/mL rmIL-2-containing RPMI1640 medium (culture medium), and seeded at 100 μL/well on the 96-well plate of which each capture antibody was immobilized. Splenocytes were stimulated by adding (1) medium alone, (2) 10 μg/mL T cell antigen AJP001 (SEQ ID NO: 38) alone, (3) 10 μg/mL AJP001 conjugated peptide (SEQ ID NO: 2), or (4) 100 ng/mL PMA/ionomycin (PMA/IM, Sigma) to each well. Stimulation was performed for 2 days in a […]. Then, a detection antibody was added and, after washing, a colorimetric reaction was performed. The stained cells were measured with a microscope. The number of IFN-γ and IL-4 positive cells was calculated as the number of cells per 10^6 cell number (SFC/10^6 cells). In FIG. 2, “*” means significant (P<0.05).
In addition, AJP001 conjugated peptide (SEQ ID NO: 6) or physiological saline was administered three times at two-week intervals to BALB/c mouse (female, 6-week-old, N=3-4), and the spleen was collected 7 weeks after the first administration. The collected spleen was subjected to ELISPOT assay using Mouse IFN-γ ELISpot assay kit and Mouse IL-4 ELISpot assay kit (R&D systems).

In the case of “SEQ ID NO 2: AJP001-Ahx-B cell epitope peptide conjugate; epitope SSSQQWQR (mouse 152-159) (not fully specified (N-terminus); listed as Mus musculus)”, the antibody titer entry with epitope peptide (0.5 mg/body intradermal twice at 2-week intervals, 5 weeks after initial administration) is “significant increase”. In the assay on epitope peptide, the “antibody titer (GMT) over time” value is “increased from the 2nd week and persisted until the 8th week”. Further, in the assay on splenocytes, the “number of IFN-γ positive cells” value was “increase” and the “number of IL-4 positive cells” value is on record as “increase”.

“SEQ ID NO 6: AJP001-Ahx-B cell epitope peptide conjugate; epitope SPSQPWQR (human 151-158) (not fully specified (N-terminus); listed as Homo sapiens)”: the “antibody titer (GMT) over time” value in the assay with epitope peptide was “increased from the 2nd week and persisted until the 8th week”. In the assay on splenocytes, the “number of IFN-γ positive cells” value was “increase” and the “number of IL-4 positive cells” value is on record as “increase”.
